Assays:
MDA-MB-231/ATCC = settings: for GI50: MDA-MB-231/ATCC, Breast Cancer
SK-MEL-2 = test: NCI 60-cell line five dose screen: SK-MEL-2; settings: SK-MEL-2, Melanoma
SF-295 = settings: for GI50: SF-295, CNS Cancer
HCC-2998 = test: NCI 60-cell line five dose screen: HCC-2998; settings: HCC-2998, Colon Cancer
TK-10 = test: NCI 60-cell line five dose screen: TK-10; settings: TK-10, Renal Cancer
RXF 393 = test: NCI 60-cell line five dose screen: RXF 393; settings: RXF 393, Renal Cancer

| Substance | CC50 (MDA-MB-231/ATCC) [µM] | GI50 (MDA-MB-231/ATCC) [µM] | GI50 (SK-MEL-2) [µM] | CC50 (SK-MEL-2; read-out: LC50) [µM] | CC50 (SF-295) [µM] | GI50 (SF-295) [µM] | GI50 (HCC-2998) [µM] | CC50 (HCC-2998; read-out: LC50) [µM] | CC50 (UACC-62) [µM] | GI50 (UACC-62; UACC-62, Melanoma) [µM] | CC50 (ACHN) [µM] | GI50 (TK-10) [µM] | CC50 (TK-10; read-out: LC50) [µM] | GI50 (RXF 393) [µM] | CC50 (RXF 393; read-out: LC50) [µM] |
| --- | --- | --- | --- | --- | --- | --- | --- | --- | --- | --- | --- | --- | --- | --- | --- |
| 13-(2-iodoimidazole)parthenolide [PNR-5-65] | 59.6 | 16.4 | 18.6 | 66.1 | > 100 | 32.1 | – | – | – | – | – | – | – | – | – |
| (E)-13-(3-thiopheno)parthenolide [PNR-5-53] | 81.8 | 16 | – | – | > 100 | 28.5 | 33.8 | > 100 | 76.6 | 13.8 | > 100 | 34.7 | > 100 | 18.1 | > 100 |
